pIC50: −log10 of the molar value.
How the values were obtained:
BTK [1] = molecular target: T1, BTK (Homo sapiens (Human), UniProt Q06187); assay: In Vitro BTK Kinase Assay: BTK-POLYGAT-LS ASSAY; format: biochemical; conditions: fluorescein-labeled polyGAT peptide 100 nM, BTK enzyme 0.25 nM, 30 minutes, TRF
Protocol: In Vitro BTK Kinase Assay: BTK-POLYGAT-LS ASSAY
The purpose of the BTK in vitro assay is to determine compound potency against BTK through the measurement of IC50. […] For a typical assay, a […] aliquot of a ATP/peptide master mix (final concentration; ATP […], polyGAT 100 nM) in kinase buffer (10 mM Tris-HCl pH 7.5, 10 mM MgCl2, 200 μM Na3PO4, 5 mM DTT, 0.01% Triton X-100, and 0.2 mg/ml casein) is added to each well. […] The assay is incubated for 30 minutes before being stopped with 28 μL of a 50 mM EDTA solution. […] The plate is covered and incubated for 45 minutes at room temperature. Time resolved fluorescence (TRF) on Molecular Devices M5 (332 nm excitation; 488 nm emission; 518 nm fluorescein emission) is measured.

BTK [2] = molecular target: T1, BTK; assay: In Vitro PD Assay in Human Whole Blood (pBTK assay); format: cell-based; conditions: human heparinized whole blood, 37° C. for 30 min, total BTK capture and phosphotyrosine detection (ECL)
Protocol: In Vitro PD Assay in Human Whole Blood
Human heparinized venous blood was purchased from Bioreclamation, Inc. or SeraCare Life Sciences and shipped overnight. Whole blood was aliquoted into 96-well plate and “spiked” with serial dilutions of test compound in DMSO or with DMSO without drug. The final concentration of DMSO in all wells was 0.1%. The plate was incubated at 37° C. for 30 min. Lysis buffer containing protease and phosphatase inhibitors was added to the drug-containing samples and one of the DMSO-only samples (+PPi, high control), while lysis buffer containing protease inhibitors was added to the other DMSO-only samples (−PPi, low control). All of the lysed whole blood samples were subjected to the total BTK capture and phosphotyrosine detection method described in US20160311802, incorporated herein by reference.

T1 sequence (Q06187 whole entry): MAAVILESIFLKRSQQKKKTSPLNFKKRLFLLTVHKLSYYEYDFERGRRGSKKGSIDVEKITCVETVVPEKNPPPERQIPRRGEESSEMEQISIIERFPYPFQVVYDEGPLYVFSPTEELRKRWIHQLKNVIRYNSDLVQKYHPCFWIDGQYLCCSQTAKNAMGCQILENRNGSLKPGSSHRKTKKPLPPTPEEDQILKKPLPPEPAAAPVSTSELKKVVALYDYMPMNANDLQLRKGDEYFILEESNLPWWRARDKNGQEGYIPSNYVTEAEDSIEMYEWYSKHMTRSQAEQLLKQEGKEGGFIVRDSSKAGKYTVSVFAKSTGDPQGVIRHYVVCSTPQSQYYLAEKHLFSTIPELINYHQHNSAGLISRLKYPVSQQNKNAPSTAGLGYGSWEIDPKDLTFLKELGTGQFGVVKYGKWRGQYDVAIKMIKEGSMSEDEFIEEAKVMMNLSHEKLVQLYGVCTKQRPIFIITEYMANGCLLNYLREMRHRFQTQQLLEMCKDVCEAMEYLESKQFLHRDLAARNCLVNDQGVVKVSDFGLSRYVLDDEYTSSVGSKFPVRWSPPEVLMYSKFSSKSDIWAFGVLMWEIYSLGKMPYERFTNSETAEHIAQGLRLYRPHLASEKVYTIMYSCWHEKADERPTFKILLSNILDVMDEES

Row | SMILES | pIC50 (BTK [1]) | pIC50 (BTK [2])
1 | Cn1cc(Nc2ncnc(-c3ccc(CNC(=O)c4noc(C(C)(C)C)n4)c(C(F)(F)F)c3)n2)cn1 [Compound 17, 5-(tert-butyl)-N-(4-(4-((1-methyl-1H-pyrazol-4-yl)amino)-1,3,5-triazin-2-yl)-2-(trifluoromethyl)benzyl)-1,2,4-oxadiazole-3-carboxamide] | > 9.00 | 6.30 to 7.00
2 | Cn1ccc(Nc2ncnc(-c3ccc(CNC(=O)c4nc(C(C)(C)C)no4)c(C(F)(F)F)c3F)n2)n1 [Compound 20, 3-(tert-butyl)-N-(3-fluoro-4-(4-((1-methyl-1H-pyrazol-3-yl)amino)-1,3,5-triazin-2-yl)-2-(trifluoromethyl)benzyl)-1,2,4-oxadiazole-5-carboxamide] | > 9.00 | 5.00 to 6.30
3 | Cn1ccc(Nc2ncnc(-c3ccc(CNC(=O)c4noc(C(C)(C)C)n4)c(Cl)c3F)n2)n1 [Compound 21, 5-(tert-butyl)-N-(2-chloro-3-fluoro-4-(4-((1-methyl-1H-pyrazol-3-yl)amino)-1,3,5-triazin-2-yl)benzyl)-1,2,4-oxadiazole-3-carboxamide] | > 9.00 | 6.30 to 7.00
4 | Cn1ccc(Nc2ncnc(-c3ccc(CNC(=O)c4nc(C(C)(C)C)no4)c(Cl)c3F)n2)n1 [Compound 22, 3-(tert-butyl)-N-(2-chloro-3-fluoro-4-(4-((1-methyl-1H-pyrazol-3-yl)amino)-1,3,5-triazin-2-yl)benzyl)-1,2,4-oxadiazole-5-carboxamide] | > 9.00 | 5.00 to 6.30
5 | Cn1ccc(Nc2ncnc(-c3ccc4c(c3)CCCC[C@H]4NC(=O)c3noc(C(C)(C)C)n3)n2)n1 [Compound 23, 5-tert-butyl-N-[(5R)-2-[4-[(1-methylpyrazol-3-yl)amino]-1,3,5-triazin-2-yl]-6,7,8,9-tetrahydro-5H-benzo[7]annulen-5-yl]-1,2,4-oxadiazole-3-carboxamide] | > 9.00 | 6.30 to 7.00
6 | Cc1c(CNC(=O)c2nn(C(C)(C)C)cc2F)ccc(-c2ncnc(Nc3cnn(C)c3)n2)c1F [Compound 27, 1-(tert-butyl)-4-fluoro-N-(3-fluoro-2-methyl-4-(4-((1-methyl-1H-pyrazol-4-yl)amino)-1,3,5-triazin-2-yl)benzyl)-1H-pyrazole-3-carboxamide] | > 9.00 | 6.30 to 7.00
7 | Cn1cc(Nc2ncnc(-c3ccc(CNC(=O)c4noc(C(C)(C)C)n4)c(Cl)c3F)n2)cn1 [Compound 28, 5-(tert-butyl)-N-(2-chloro-3-fluoro-4-(4-((1-methyl-1H-pyrazol-4-yl)amino)-1,3,5-triazin-2-yl)benzyl)-1,2,4-oxadiazole-3-carboxamide] | > 9.00 | > 7.00
8 | Cn1cc(Nc2ncnc(-c3ccc(CNC(=O)c4nc(C(C)(C)C)no4)c(Cl)c3F)n2)cn1 [Compound 29, 3-(tert-butyl)-N-(2-chloro-3-fluoro-4-(4-((1-methyl-1H-pyrazol-4-yl)amino)-1,3,5-triazin-2-yl)benzyl)-1,2,4-oxadiazole-5-carboxamide] | > 9.00 | > 7.00
9 | Cn1cc(Nc2ncnc(-c3ccc(CNC(=O)c4noc(C5(C)CC5)n4)c(Cl)c3F)n2)cn1 [Compound 30, N-(2-chloro-3-fluoro-4-(4-((1-methyl-1H-pyrazol-4-yl)amino)-1,3,5-triazin-2-yl)benzyl)-5-(1-methylcyclopropyl)-1,2,4-oxadiazole-3-carboxamide] | > 9.00 | > 7.00
10 | Cc1c(CNC(=O)c2ncc(C(C)(C)C)o2)ccc(-c2ncnc(Nc3cnn(C)c3)n2)c1F [Compound 31, 5-(tert-butyl)-N-(3-fluoro-2-methyl-4-(4-((1-methyl-1H-pyrazol-4-yl)amino)-1,3,5-triazin-2-yl)benzyl)oxazole-2-carboxamide] | > 9.00 | 5.00 to 6.30
11 | Cc1c(CNC(=O)c2noc(C3(C)CC3)n2)ccc(-c2ncnc(Nc3cnn(C)c3)n2)c1F [Compound 32, N-(3-fluoro-2-methyl-4-(4-((1-methyl-1H-pyrazol-4-yl)amino)-1,3,5-triazin-2-yl)benzyl)-5-(1-methylcyclopropyl)-1,2,4-oxadiazole-3-carboxamide] | > 9.00 | > 7.00
12 | Cn1cc(Nc2ncnc(-c3ccc4c(c3)CCCC[C@H]4NC(=O)c3noc(C(C)(C)C)n3)n2)cn1 [Compound 33, 5-tert-butyl-N-[(5R)-2-[4-[(1-methylpyrazol-4-yl)amino]-1,3,5-triazin-2-yl]-6,7,8,9-tetrahydro-5H-benzo[7]annulen-5-yl]-1,2,4-oxadiazole-3-carboxamide] | > 9.00 | > 7.00
13 | Cn1cc(Nc2ncnc(-c3ccc4c(c3)CCCC[C@H]4NC(=O)c3nc(C(C)(C)C)no3)n2)cn1 [Compound 34, 3-tert-butyl-N-[(5R)-2-[4-[(1-methylpyrazol-4-yl)amino]-1,3,5-triazin-2-yl]-6,7,8,9-tetrahydro-5H-benzo[7]annulen-5-yl]-1,2,4-oxadiazole-5-carboxamide] | > 9.00 | > 7.00
14 | Cn1cc(Nc2ncnc(-c3ccc4c(c3)CCCC[C@H]4NC(=O)c3cnc(C(C)(C)C)o3)n2)cn1 [Compound 35, 2-tert-butyl-N-[(5R)-2-[4-[(1-methylpyrazol-4-yl)amino]-1,3,5-triazin-2-yl]-6,7,8,9-tetrahydro-5H-benzo[7]annulen-5-yl]-oxazole-5-carboxamide] | > 9.00 | 6.30 to 7.00
15 | Cc1c(CNC(=O)c2cnn(C(C)(C)C)c2)ccc(-c2ncnc(Nc3cnn(C)c3)n2)c1F [Compound 36, 1-(tert-butyl)-N-(3-fluoro-2-methyl-4-(4-((1-methyl-1H-pyrazol-4-yl)amino)-1,3,5-triazin-2-yl)benzyl)-1H-pyrazole-4-carboxamide] | > 9.00 | 6.30 to 7.00
16 | Cc1cc(-c2ncnc(Nc3cnn(C)c3)n2)ccc1CNC(=O)c1cnn(C(C)(C)C)c1 [Compound 37, 1-(tert-butyl)-N-(2-methyl-4-(4-((1-methyl-1H-pyrazol-4-yl)amino)-1,3,5-triazin-2-yl)benzyl)-1H-pyrazole-4-carboxamide] | > 9.00 | 6.30 to 7.00
17 | Cc1cc(-c2ncnc(Nc3cnn(C)c3)n2)ccc1CNC(=O)c1nnn(C(C)(C)C)n1 [Compound 39, 2-(tert-butyl)-N-(2-methyl-4-(4-((1-methyl-1H-pyrazol-4-yl)amino)-1,3,5-triazin-2-yl)benzyl)-2H-tetrazole-5-carboxamide] | > 9.00 | > 7.00
18 | Cc1cc(-c2ncnc(Nc3cnn(C)c3)n2)ccc1CNC(=O)c1noc(C2(C)CC2)n1 [Compound 40, N-(2-methyl-4-(4-((1-methyl-1H-pyrazol-4-yl)amino)-1,3,5-triazin-2-yl)benzyl)-5-(1-methylcyclopropyl)-1,2,4-oxadiazole-3-carboxamide] | > 9.00 | 6.30 to 7.00
19 | Cc1cc(-c2ncnc(Nc3ccn(C)n3)n2)ccc1CNC(=O)c1cc(C(C)(C)C)on1 [Compound 42, 5-(tert-butyl)-N-(2-methyl-4-(4-((1-methyl-1H-pyrazol-3-yl)amino)-1,3,5-triazin-2-yl)benzyl)isoxazole-3-carboxamide] | 8.00 to 9.00 | 5.00 to 6.30
20 | Cc1cc(-c2ncnc(Nc3ccn(C)n3)n2)ccc1CNC(=O)c1cc(C(C)(C)C)no1 [Compound 43, 3-(tert-butyl)-N-(2-methyl-4-(4-((1-methyl-1H-pyrazol-3-yl)amino)-1,3,5-triazin-2-yl)benzyl)isoxazole-5-carboxamide] | 8.00 to 9.00 | 5.00 to 6.30
